Measured values taken from patent US8455688B2, “HDAC inhibitors” (Lixte Biotechnology, Inc., priority 2007, dated 2013).
≈ marks a conversion by molar mass, not a printed value. Where two headings read alike, the source gives them in different places.

What was measured:
C. albicans = assay: Broth dilution antifungal susceptibility testing, C. albicans; type: cell-based, Candida albicans; settings: Candida albicans, 50% reduction in turbidity, read-out: minimum inhibitory concentration (MIC)
Description: (§1) A total of 23 isolates were tested to include 3 Candida albicans, 3 Candida glabrata, 3 Cryptococcus neoformans, 3 Aspergillus fumigatus, 3 Rhizopus oryzae, 3, Fusarium solani, 3 Pseudallescheria boydii, and 2 […]. All isolates were clinical isolates submitted to the Fungus Testing Laboratory for evaluation. Antifungal susceptibility testing was accomplished according to the methods outlined in the National Committee for Clinical Laboratory Standards, M-27A2, Reference Method for Broth Dilution Antifungal Susceptibility Testing of Yeasts; Approved Standard, and M38-A “Reference Method for Broth Dilution Antifungal Susceptibility Testing of Conidium-Forming Filamentous Fungi; Approved Standard”. This includes testing in RPMI-1640 with glutamine and without bicarbonate, an inoculum size of 0.5-2.5×10^3 for yeasts or […] for moulds, and incubation at 35° C. for 24 and 48 hours. […] Drug concentrations were 0.125-64 μg/ml. A 10 mg portion of each powder was weighed out and added to 1 ml of 100% DMSO for compound 205. The resulting concentration of […] was diluted to a working concentration of 6400 μg/ml for compound 205 in 100% DMSO. All subsequent dilutions were also made using the respective diluents. Final testing concentrations ranged from 0.125-64 μg/ml. The NCCLS recommended medium RPMI-1640 (Hardy Diagnostics, Santa Monica, Calif.) was utilized as the test medium. All isolates in this study were clinical isolates received in the Fungus Testing Laboratory for standard antifungal susceptibility testing and/or identification. Isolates, which were not sent for identification, were confirmed to assure testing integrity. A total of 23 were tested to include 3 Candida albicans, 3 Candida glabrata, 3 Cryptococcus neoformans, 3 Aspergillus fumigatus, 3 Rhizopus oryzae, 3, Fusarium solani, 3 Pseudallescheria boydii, and 2 […]. Minimum inhibitory concentrations (MIC) were determined at the first 24-hour interval where growth could be determined in the drug-free control tube.

C. glabrata = assay: Broth dilution antifungal susceptibility testing, C. glabrata; type: cell-based, Candida glabrata; settings: Nakaseomyces glabratus, 50% reduction in turbidity, read-out: minimum inhibitory concentration (MIC)
Description: as §1

C. neoformans = assay: Broth dilution antifungal susceptibility testing, C. neoformans; type: cell-based; settings: Cryptococcus neoformans, 50% reduction in turbidity, read-out: minimum inhibitory concentration (MIC)
Description: as §1

R. arrhizus = assay: Broth dilution antifungal susceptibility testing, R. arrhizus; type: cell-based, Rhizopus oryzae; settings: Rhizopus arrhizus, 80% inhibition, read-out: minimum inhibitory concentration (MIC)
Description: as §1

F. solani = assay: Broth dilution antifungal susceptibility testing, F. solani; type: cell-based; settings: Fusarium solani, 80% inhibition, read-out: minimum inhibitory concentration (MIC)
Description: as §1

S. apiospermum = assay: Broth dilution antifungal susceptibility testing, S. apiospermum; type: cell-based, Pseudallescheria boydii; settings: Scedosporium apiospermum, 80% inhibition, read-out: minimum inhibitory concentration (MIC)
Description: as §1

A. fumigatus = assay: Broth dilution antifungal susceptibility testing, A. fumigatus; type: cell-based, Aspergillus fumigatus; settings: Aspergillus fumigatus, 80% inhibition, read-out: minimum inhibitory concentration (MIC)
Description: as §1

T. rubrum = assay: Broth dilution antifungal susceptibility testing, T. rubrum; type: cell-based, Trichophyton rubrum; settings: Trichophyton rubrum, 80% inhibition, read-out: minimum inhibitory concentration (MIC)
Description: as §1

[1] = 24 h, isolate 07-3006, 24 hours
[2] = 24 h, isolate 07-3011, 24 hours
[3] = 24 h, isolate 07-3012, 24 hours
[4] = 48 h, isolate 07-3006, 48 hours
[5] = 48 h, isolate 07-3011, 48 hours
[6] = 48 h, isolate 07-3012, 48 hours
[7] = 24 h, isolate 07-2964, 24 hours
[8] = 24 h, isolate 07-2965, 24 hours
[9] = 24 h, isolate 07-3013, 24 hours
[10] = 48 h, isolate 07-2964, 48 hours
[11] = 48 h, isolate 07-2965, 48 hours
[12] = 48 h, isolate 07-3013, 48 hours
[13] = 24 h, isolate 07-2665, 24 hours
[14] = 24 h, isolate 07-2737, 24 hours
[15] = 24 h, isolate 07-2829, 24 hours
[16] = 48 h, isolate 07-2665, 48 hours
[17] = 48 h, isolate 07-2737, 48 hours
[18] = 48 h, isolate 07-2829, 48 hours
[19] = 24 h, isolate 07-1870, 24 hours
[20] = 24 h, isolate 07-2044, 24 hours
[21] = 24 h, isolate 07-2078, 24 hours
[22] = 48 h, isolate 07-1870, 48 hours
[23] = 48 h, isolate 07-2044, 48 hours
[24] = 48 h, isolate 07-2078, 48 hours
[25] = 24 h, isolate 07-1399, 24 hours
[26] = 24 h, isolate 07-1755, 24 hours
[27] = 24 h, isolate 07-1867, 24 hours
[28] = 48 h, isolate 07-1399, 48 hours
[29] = 48 h, isolate 07-1755, 48 hours
[30] = 48 h, isolate 07-1867, 48 hours
[31] = 24 h, isolate 07-1333, 24 hours
[32] = 24 h, isolate 07-1502, 24 hours
[33] = 24 h, isolate 07-1601, 24 hours
[34] = 48 h, isolate 07-1333, 48 hours
[35] = 48 h, isolate 07-1502, 48 hours
[36] = 48 h, isolate 07-1601, 48 hours
[37] = 24 h, isolate 06-4126, 24 hours
[38] = 24 h, isolate 07-2039, 24 hours
[39] = 48 h, isolate 06-4126, 48 hours
[40] = 48 h, isolate 07-2039, 48 hours
[41] = 24 h, isolate 07-1743, 24 hours
[42] = 24 h, isolate 07-2055, 24 hours
[43] = 48 h, isolate 07-1743, 48 hours
[44] = 48 h, isolate 07-2055, 48 hours

Structure (SMILES): O=C(CCCCCNC(=O)c1cc(Cl)ccc1S)Nc1ccccc1 [Compound 210]
- MIC (C. albicans; [1]): > 64 µg/mL
- MIC (C. albicans; [2]): > 64 µg/mL
- MIC (C. albicans; [3]): > 64 µg/mL
- MIC (C. albicans; [4]): > 64 µg/mL
- MIC (C. albicans; [5]): > 64 µg/mL
- MIC (C. albicans; [6]): > 64 µg/mL
- MIC (C. glabrata; [7]): > 64 µg/mL
- MIC (C. glabrata; [8]): > 64 µg/mL
- MIC (C. glabrata; [9]): > 64 µg/mL
- MIC (C. glabrata; [10]): > 64 µg/mL
- MIC (C. glabrata; [11]): > 64 µg/mL
- MIC (C. glabrata; [12]): > 64 µg/mL
- MIC (C. neoformans; [13]): > 64 µg/mL
- MIC (C. neoformans; [14]): > 64 µg/mL
- MIC (C. neoformans; [15]): > 64 µg/mL
- MIC (C. neoformans; [16]): > 64 µg/mL
- MIC (C. neoformans; [17]): > 64 µg/mL
- MIC (C. neoformans; [18]): > 64 µg/mL
- MIC (R. arrhizus; [19]): 4 µg/mL (≈ 10.6 µM)
- MIC (R. arrhizus; [20]): 4 µg/mL (≈ 10.6 µM)
- MIC (R. arrhizus; [21]): > 64 µg/mL
- MIC (R. arrhizus; [22]): > 64 µg/mL
- MIC (R. arrhizus; [23]): > 64 µg/mL
- MIC (R. arrhizus; [24]): > 64 µg/mL
- MIC (F. solani; [25]): 1 µg/mL (≈ 2.65 µM)
- MIC (F. solani; [26]): 1 µg/mL (≈ 2.65 µM)
- MIC (F. solani; [27]): 2 µg/mL (≈ 5.31 µM)
- MIC (F. solani; [28]): > 64 µg/mL
- MIC (F. solani; [29]): > 64 µg/mL
- MIC (F. solani; [30]): > 64 µg/mL
- MIC (S. apiospermum; [31]): 1 µg/mL (≈ 2.65 µM)
- MIC (S. apiospermum; [32]): 1 µg/mL (≈ 2.65 µM)
- MIC (S. apiospermum; [33]): 1 µg/mL (≈ 2.65 µM)
- MIC (S. apiospermum; [34]): > 64 µg/mL
- MIC (S. apiospermum; [35]): > 64 µg/mL
- MIC (S. apiospermum; [36]): > 64 µg/mL
- MIC (A. fumigatus; 24 h, isolate 05-388, 24 hours): 2 µg/mL (≈ 5.31 µM)
- MIC (A. fumigatus; [37]): 2 µg/mL (≈ 5.31 µM)
- MIC (A. fumigatus; [38]): 2 µg/mL (≈ 5.31 µM)
- MIC (A. fumigatus; 48 h, isolate 05-388, 48 hours): > 64 µg/mL
- MIC (A. fumigatus; [39]): > 64 µg/mL
- MIC (A. fumigatus; [40]): > 64 µg/mL
- MIC (T. rubrum; [41]): 0.25 µg/mL (≈ 0.663 µM)
- MIC (T. rubrum; [42]): 0.25 µg/mL (≈ 0.663 µM)
- MIC (T. rubrum; [43]): 0.5 µg/mL (≈ 1.33 µM)
- MIC (T. rubrum; [44]): 0.5 µg/mL (≈ 1.33 µM)

Structure (SMILES): COc1ccc(S)c(C(=O)NCCCCCC(=O)Nc2ccccc2)c1 [Compound 211]
- MIC (C. albicans; [1]): > 64 µg/mL
- MIC (C. albicans; [2]): > 64 µg/mL
- MIC (C. albicans; [3]): > 64 µg/mL
- MIC (C. albicans; [4]): > 64 µg/mL
- MIC (C. albicans; [5]): > 64 µg/mL
- MIC (C. albicans; [6]): > 64 µg/mL
- MIC (C. glabrata; [7]): > 64 µg/mL
- MIC (C. glabrata; [8]): > 64 µg/mL
- MIC (C. glabrata; [9]): > 64 µg/mL
- MIC (C. glabrata; [10]): > 64 µg/mL
- MIC (C. glabrata; [11]): > 64 µg/mL
- MIC (C. glabrata; [12]): > 64 µg/mL
- MIC (C. neoformans; [13]): 8 µg/mL (≈ 21.5 µM)
- MIC (C. neoformans; [14]): 8 µg/mL (≈ 21.5 µM)
- MIC (C. neoformans; [15]): 8 µg/mL (≈ 21.5 µM)
- MIC (C. neoformans; [16]): 16 µg/mL (≈ 43 µM)
- MIC (C. neoformans; [17]): 16 µg/mL (≈ 43 µM)
- MIC (C. neoformans; [18]): 16 µg/mL (≈ 43 µM)
- MIC (R. arrhizus; [19]): 4 µg/mL (≈ 10.7 µM)
- MIC (R. arrhizus; [20]): 4 µg/mL (≈ 10.7 µM)
- MIC (R. arrhizus; [21]): 8 µg/mL (≈ 21.5 µM)
- MIC (R. arrhizus; [22]): > 64 µg/mL
- MIC (R. arrhizus; [23]): > 64 µg/mL
- MIC (R. arrhizus; [24]): > 64 µg/mL
- MIC (F. solani; [25]): 4 µg/mL (≈ 10.7 µM)
- MIC (F. solani; [26]): 4 µg/mL (≈ 10.7 µM)
- MIC (F. solani; [27]): 2 µg/mL (≈ 5.37 µM)
- MIC (F. solani; [28]): 8 µg/mL (≈ 21.5 µM)
- MIC (F. solani; [29]): 8 µg/mL (≈ 21.5 µM)
- MIC (F. solani; [30]): 8 µg/mL (≈ 21.5 µM)
- MIC (S. apiospermum; [31]): 2 µg/mL (≈ 5.37 µM)
- MIC (S. apiospermum; [32]): 2 µg/mL (≈ 5.37 µM)
- MIC (S. apiospermum; [33]): 2 µg/mL (≈ 5.37 µM)
- MIC (S. apiospermum; [34]): 4 µg/mL (≈ 10.7 µM)
- MIC (S. apiospermum; [35]): 4 µg/mL (≈ 10.7 µM)
- MIC (S. apiospermum; [36]): 4 µg/mL (≈ 10.7 µM)
- MIC (A. fumigatus; 24 h, isolate 05-388, 24 hours): 2 µg/mL (≈ 5.37 µM)
- MIC (A. fumigatus; [37]): 2 µg/mL (≈ 5.37 µM)
- MIC (A. fumigatus; [38]): 2 µg/mL (≈ 5.37 µM)
- MIC (A. fumigatus; 48 h, isolate 05-388, 48 hours): > 64 µg/mL
- MIC (A. fumigatus; [39]): > 64 µg/mL
- MIC (A. fumigatus; [40]): > 64 µg/mL
- MIC (T. rubrum; [41]): ≤ 0.125 µg/mL
- MIC (T. rubrum; [42]): ≤ 0.125 µg/mL
- MIC (T. rubrum; [43]): ≤ 0.125 µg/mL
- MIC (T. rubrum; [44]): ≤ 0.125 µg/mL
